In US10674724B2, “Method of activating immune response in plants” (priority 2012, dated 2020):

Key:
[1] = biological target: T1, NPR1 (Arabidopsis thaliana, UniProt P93002); type: binding; settings: equilibrium dialysis
T1 construct: made in house; host or cells: E. coli
Protocol: Given the dissociation reaction:
The data was analyzed by non-linear regression using GraphPad PRISM 4 and fitted to a one-site-binding rectangular hyperbola.

[2] = biological target: T2, BTB/POZ-Δ513 interaction (Arabidopsis thaliana, UniProt P93002); assay: BTB/POZ-Δ513 pull-down assay; type: biochemical; design: made in house; host or cells: E. coli; settings: 1 mM SA
T2 sequence (P93002 513-593): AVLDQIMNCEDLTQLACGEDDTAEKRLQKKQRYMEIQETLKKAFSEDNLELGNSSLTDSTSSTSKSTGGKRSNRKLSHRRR
Protocol: The BTB/POZ (amino acids 1-190 of NPR1) was expressed in E. coli as a C-terminal fusion to the Strep-Tag according to standard protocols. The Δ513 of NPR1 was expressed as an N-terminal fusion to the HA-Tag as described above. The VLRSgt (as described in Hall et al. (2007) Plant J 49, 579-591) was expressed in E. coli as an N-terminal fusion to the GST-Tag according to standard protocols. The pull-down assay was performed in the Strep-Tactin buffer. The antibodies used for detecting the tags in the BTB/POZ-Strep was from Qiagen (catalog #34850) and those used for the tags in HA-Δ513 or the GST-VLRSgt were from Santa Cruz Biotechnology (catalog #: sc-7392 and sc-138).
Given that the plant two-hybrid system is an in vivo method of analysis, an indirect effect of SA on the interaction of the BTB/POZ and the C-terminus of NPR1 cannot be ruled out. Thus, the interaction in vitro in a pull-down assay (FIG. 8) was tested. […] As negative controls, first an unrelated protein (VLRSgt) was shown not to interact with BTB/POZ (FIG. 5D) and secondly Δ513 was shown not to interact with the solid support in the absence of BTB/POZ (FIG. 5E).

[3] = biological target: T1, NPR1; assay: Sephacryl S300 gel filtration of Strep-tagged NPR1; type: biochemical
Protocol: (§1) Strep-tagged purified proteins in a final volume of 2 ml were subjected to gel filtration analysis on the Sephacryl S100 HR or Sephacryl S300 HR packed in 50 cm long HR 16 columns (GE Health) and equilibrated with S300 chromatography buffer (50 mM HEPES, pH 7.4, 250 mM NaCl. Elutions, in 0.5 ml fractions, were performed in the same buffer at a flow rate of 0.8 ml/min. Where indicated, proteins were incubated with 1 mM SA, 1 mM catechol, 1 mM 4-hydroxy benzoic acid, or 1 mM methyl-salicylate at room temperature for 30 min prior to chromatography as described above with the exception that the chromatography buffer was supplemented with 1 mM SA, 1 mM catechol, 1 mM 4-hydroxy benzoic acid, or 1 mM methyl-salicylate, respectively. In the case of the EDTA treatment, NPR1 was stripped of its metal by a 50 mM EDTA treatment of 30 min, followed by an incubation of 30 min with 1 mM SA prior to gel filtration. In this case, the chromatography buffer was supplemented with 1 mM SA.

[4] = biological target: T2, BTB/POZ-Δ513 interaction; assay: in vivo plant two-hybrid assay; type: cell-based; design: expressed in transfected cells; host or cells: Arabidopsis thaliana (Columbia) leaves, biolistic bombardment; settings: 1 mM salicylic acid in medium, reporter mRNA
Protocol: Arabidopsis thaliana (Columbia) leaves were harvested from four-week-old plants grown at 21° C. (day) and 18° C. (night) with a ten-hour photoperiod and transferred to Petri dishes containing MS salts and micronutrients supplemented with B5 vitamins, 1% sucrose and 0.8% agar at a pH of 5.8. […] Coating of the gold particles and general procedures and preparation of the biolistic experiments were as per the manufacturer's instructions (Bio-Rad). After bombardment, leaves were kept in the conditions described above for a period of 24 hours before assaying. Enzyme assays were performed using the Dual-Luciferase Reporter Assay® system (Promega) following the manufacturer's instructions. Luminescence was measured on a Berthold Lumat LB9507 Luminometer (Bad Wildbad, Germany) and the data obtained represented the value of the reporter gene divided by the value of the internal standard and expressed as Relative Luciferase Units. To increase signal-to-noise ratio in some experiments, qPCR was performed to measure the amount of Firefly and Renilla Luciferases mRNA. […]
Since BTB/POZ domains can be autoinhibitory, it was determined whether or not the NPR1 BTB/POZ can interact with the NPR1 transactivation domain. […] Here the reporter gene was monitored through its mRNA as opposed to its enzyme activity, which provided a greater signal-to-noise ratio (see Experimental Procedures). […]

[5] = biological target: T3, NPR1 C521S/C529S (Arabidopsis thaliana, UniProt P93002, C521S/C529S); assay: Sephacryl S300 gel filtration of NPR1 Cys-to-Ser mutant; type: biochemical; settings: 1 mM SA
T3 construct: both full-length NPR1 and Δ513 harboring C-to-S mutations at Cys^521/529; made in house; host or cells: E. coli
T3 sequence (P93002 whole entry C521S/C529S): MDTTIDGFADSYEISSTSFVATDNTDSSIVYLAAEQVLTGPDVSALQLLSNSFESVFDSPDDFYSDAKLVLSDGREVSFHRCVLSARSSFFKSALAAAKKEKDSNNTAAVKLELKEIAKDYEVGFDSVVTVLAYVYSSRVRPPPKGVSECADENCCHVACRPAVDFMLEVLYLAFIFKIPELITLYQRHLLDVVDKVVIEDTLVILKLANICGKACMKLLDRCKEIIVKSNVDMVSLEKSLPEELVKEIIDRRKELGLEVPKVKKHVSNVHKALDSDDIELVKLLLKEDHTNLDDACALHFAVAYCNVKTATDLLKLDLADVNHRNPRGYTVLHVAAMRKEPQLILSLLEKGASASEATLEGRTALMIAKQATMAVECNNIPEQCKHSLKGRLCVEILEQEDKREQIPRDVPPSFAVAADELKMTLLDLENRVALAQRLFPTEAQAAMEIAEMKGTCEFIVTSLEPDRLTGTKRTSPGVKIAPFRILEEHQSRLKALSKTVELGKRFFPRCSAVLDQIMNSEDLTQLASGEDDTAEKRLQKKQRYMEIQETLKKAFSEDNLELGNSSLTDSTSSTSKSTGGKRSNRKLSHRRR
Protocol: as §1

[6] = biological target: T1, NPR1; assay: classical non-equilibrium solid-phase [14C]SA binding; settings: radiolabeled SA, washes to remove unbound ligand
Protocol: To test whether NPR1 can bind SA directly, a classic method to assess Kd values was used, which involved coupling NPR1 to a solid phase and incubating it with radiolabeled SA, followed by washes to remove unbound ligand and counting the amount of ligand bound to NPR1.

T1 sequence (P93002 whole entry): as the sequence (P93002 whole entry C521S/C529S) above, with S521C, S529C counted along it

For `O=C(O)c1ccccc1O` [SA, Salicylic acid], the “amount of SA bound to NPR1 above a no-protein experiment” value [1] was ~4 orders of magnitude, the “maximum binding (Bmax)” value ([1]; saturation binding) was 0.96±0.01 mol SA per mol NPR1 and the “BTB/POZ-Δ513 interaction in pull-down” value [2] was “disrupted”. For the same molecule, the “conformation of NPR1 (S300 elution profile)” value ([3]; 1 mM SA, catechol, 4-hydroxy benzoic acid or methyl-salicylate, 30 min, DTT concentration not given) was “redistributed to the included volume”, the “SA-induced NPR1 conformation change after metal chelation” value ([3]; 50 mM EDTA 30 min, then 1 mM SA 30 min) was “abolished the NPR1 conformation change” and the “BTB/POZ-Δ513 interaction in plant two-hybrid” value [4] was “disrupts the BTB/POZ-Δ513 association”. For the same molecule, the “SA-induced NPR1 conformation change, Cys521/529 mutant” value [5] was “abolished the NPR1 conformation change” and the “binding of SA to NPR1 coupled to a solid phase” value [6] was “not above that observed with a solid phase containing no protein”.
